Source: patent US10329289B2, “6,7-dihydro-5H-pyrrolo[3,4-B]pyridin-5-one allosteric modulators of the M4 muscarinic acetylcholine receptor” (Merck Sharp & Dohme Corp., priority 2015, dated 2019)
pEC50: −log10 of the molar value.

Target: T1, human M4 muscarinic acetylcholine receptor (Homo sapiens, UniProt P08173)
T1 construct: expressed in transfected cells; host or cells: CHO-K1
T1 sequence (P08173 1-479): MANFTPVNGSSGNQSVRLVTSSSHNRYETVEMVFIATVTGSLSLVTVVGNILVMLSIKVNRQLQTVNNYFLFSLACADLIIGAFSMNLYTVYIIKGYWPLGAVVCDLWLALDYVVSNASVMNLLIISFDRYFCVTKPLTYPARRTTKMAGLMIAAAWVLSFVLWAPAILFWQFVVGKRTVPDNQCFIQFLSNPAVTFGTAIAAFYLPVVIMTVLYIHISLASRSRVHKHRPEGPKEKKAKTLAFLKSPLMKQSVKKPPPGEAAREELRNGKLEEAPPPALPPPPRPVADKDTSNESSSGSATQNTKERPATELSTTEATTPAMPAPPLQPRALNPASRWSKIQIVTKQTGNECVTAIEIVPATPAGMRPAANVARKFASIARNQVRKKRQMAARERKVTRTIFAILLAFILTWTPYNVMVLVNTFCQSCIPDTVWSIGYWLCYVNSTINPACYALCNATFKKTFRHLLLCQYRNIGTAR
Assay: human FLIPR-based M4 PAM assay (Ca2+ mobilization, CHO-K1 cells with human M4 receptor and Gαqi5)
Assay type: cell-based
Conditions: acetylcholine at 20% of maximum response, read-out: M4 PAM IP
Method in brief: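 Calcium-mobilization (FLIPR) readout in dye-loaded CHO-K1 cells co-expressing human M4 receptor and Gαqi5. Potentiation measured against acetylcholine at a concentration giving 20% of maximal response, with an optional 70% addition; the reported value is the curve inflection point from a 4-parameter logistic fit.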

Structure (SMILES)	pEC50
Cc1cc2c(nc1N1CCC(Oc3ccc(OCCO)nc3)CC1)CNC2=O [Example 170, 2-(4-((6-(2-hydroxyethoxy)pyridin-3-yl)oxy)piperidin-1-yl)-3-methyl-6,7-dihydro-5H-pyrrolo[3,4-b]pyridin-5-one]	7.40
Cc1cc2c(nc1N1CCC(Oc3cnn(-c4ccccc4)c3)CC1)CNC2=O [Example 170A, 3-methyl-2-(4-((1-phenyl-1H-pyrazol-4-yl)oxy)piperidin-1-yl)-6,7-dihydro-5H-pyrrolo[3,4-b]pyridin-5-one]	6.89
COCCOc1ccc(OC2CCN(c3nc4c(cc3C)C(=O)NC4)CC2)cn1 [Example 171, 2-(4-((6-(2-methoxyethoxy)pyridin-3-yl)oxy)piperidin-1-yl)-3-methyl-6,7-dihydro-5H-pyrrolo[3,4-b]pyridin-5-one]	7.10
Cc1cc2c(nc1N1CC[C@@H](OCC3(C)CC3)C(F)(F)C1)CNC2=O [Example 171A, (R)-2-(3,3-difluoro-4-((1-methylcyclopropyl)meth-oxy)piperidin-1-yl)-3-methyl-6,7-dihydro-5H-pyrrolo[3,4-b]pyridin-5-one]	6.31
Cc1cc2c(nc1N1CC[C@H](OCC3(C)CC3)C(F)(F)C1)CNC2=O [Example 171B, (S)-2-(3,3-difluoro-4-((1-methylcyclopropyl)meth-oxy)piperidin-1-yl)-3-methyl-6,7-dihydro-5H-pyrrolo[3,4-b]pyridin-5-one]	7.85
Cc1cc2c(nc1N1CCC(OCC3CCC3)CC1)CNC2=O [Example 172, 2-(4-(cyclobutylmethoxy)piperidin-1-yl)-3-methyl-6,7-dihydro-5H-pyrrolo[3,4-b]pyridin-5-one]	6.90
Cc1cc2c(nc1N1CCC(OCC(F)(F)F)CC1)CNC2=O [Example 172A, 3-methyl-2-(4-(2,2,2-trifluoroethoxy)piperidin-1-yl)-6,7-dihydro-5H-pyrrolo[3,4-b]pyridin-5-one]	6.04
Cc1cc2c(nc1N1CCC(Oc3ccc(OCCN4CCC4)nc3)CC1)CNC2=O [Example 173, 2-(4-((6-(2-(azetidin-1-yl)ethoxy)pyridin-3-yl)oxy)piperidin-1-yl)-3-methyl-6,7-dihydro-5H-pyrrolo[3,4-b]pyridin-5-one]	6.50
CCc1cc2c(nc1N1CCC(Oc3cncc(C)c3)CC1)CNC2=O [Example 173A, 3-ethyl-2-(4-((5-methylpyridin-3-yl)oxy)piperidin-1-yl)-6,7-dihydro-5H-pyrrolo[3,4-b]pyridin-5-one]	6.68
CC(=O)NCCOc1ccc(OC2CCN(c3nc4c(cc3C)C(=O)NC4)CC2)cn1 [Example 174, N-(2-((5-((1-(3-methyl-5-oxo-6,7-dihydro-5H-pyrrolo[3,4-b]pyridin-2-yl)piperidin-4-yl)oxy)pyridin-2-yl)oxy)ethyl)acetamide]	7.35
Cc1cc2c(nc1N1CCC(OCC3CCCC3)CC1)CNC2=O [Example 175, 2-(4-(cyclopentylmethoxy)piperidin-1-yl)-3-methyl-6,7-dihydro-5H-pyrrolo[3,4-b]pyridin-5-one]	6.86
Cc1cc2c(nc1N1CCC(OCC3(C)CC3)CC1)CNC2=O [Example 176, 3-methyl-2-(4-((1-methylcyclopropyl)meth-oxy)piperidin-1-yl)-6,7-dihydro-5H-pyrrolo[3,4-b]pyridin-5-one]	7.41
Cc1cc2c(nc1N1CCC(OCC3CCOC3)CC1)CNC2=O (stereo not drawn) [Example 177, 3-methyl-2-(4-((tetrahydrofuran-3-yl)methoxy)piperidin-1-yl)-6,7-dihydro-5H-pyrrolo[3,4-b]pyridin-5-one]	5.74
Cc1cc2c(nc1N1CCC(OCC3(C)CCCC3)CC1)CNC2=O [Example 178, 3-methyl-2-(4-((1-methylcyclopentyl)meth-oxy)piperidin-1-yl)-6,7-dihydro-5H-pyrrolo[3,4-b]pyridin-5-one]	5.61
Cc1cc2c(nc1N1CCC(OCC3(F)CCCC3)CC1)CNC2=O [Example 180, 2-(4-((1-fluorocyclopentyl)meth-oxy)piperidin-1-yl)-3-methyl-6,7-dihydro-5H-pyrrolo[3,4-b]pyridin-5-one]	5.78
Cc1cc2c(nc1N1CCC(OCC(C)(C)C)CC1)CNC2=O [Example 182, 3-methyl-2-(4-(neopentyloxy)piperidin-1-yl)-6,7-dihydro-5H-pyrrolo[3,4-b]pyridin-5-one]	5.42
Cc1cc2c(nc1N1CCC(OCc3ncco3)CC1)CNC2=O [Example 183, 3-methyl-2-(4-(oxazol-2-ylmethoxy)piperidin-1-yl)-6,7-dihydro-5H-pyrrolo[3,4-b]pyridin-5-one]	5.32
Cc1cc2c(nc1N1CCC(OCC3(C)CCC3)CC1)CNC2=O [Example 184, 3-methyl-2-(4-((1-methylcyclobutyl)meth-oxy)piperidin-1-yl)-6,7-dihydro-5H-pyrrolo[3,4-b]pyridin-5-one]	6.61
CCC1(COC2CCN(c3nc4c(cc3C)C(=O)NC4)CC2)CC1 [Example 186, 2-(4-((1-ethylcyclopropyl)meth-oxy)piperidin-1-yl)-3-methyl-6,7-dihydro-5H-pyrrolo[3,4-b]pyridin-5-one]	7.11
Cc1cc2c(nc1N1CCC(OCC34CC(C3)C4)CC1)CNC2=O [Example 187, 2-(4-(bicyclo[1.1.1]pentan-1-ylmethoxy)piperidin-1-yl)-3-methyl-6,7-dihydro-5H-pyrrolo[3,4-b]pyridin-5-one]	6.65

Second part, the compound after the results:

pEC50	Structure (SMILES)
7.66	Cc1c(N2CC[C@@H](OCC3(C)CC3)[C@H](F)C2)nc2c(c1C)C(=O)NC2 [Example 174A, 2-((3R,4R)-3-fluoro-4-((1-methylcyclopropyl)meth-oxy)piperidin-1-yl)-3,4-dimethyl-6,7-dihydro-5H-pyrrolo[3,4-b]pyridin-5-one]
5.51	Cc1cc2c(nc1N1CCC(OCc3ccncc3)CC1)CNC2=O [Example 175A, 3-methyl-2-(4-(pyridin-4-ylmethoxy)piperidin-1-yl)-6,7-dihydro-5H-pyrrolo[3,4-b]pyridin-5-one]
6.58	CCc1cc2c(nc1N1CCC(OCC3CC3)CC1)CNC2=O [Example 176A, 2-(4-(cyclopropylmethoxy)piperidin-1-yl)-3-ethyl-6,7-dihydro-5H-pyrrolo[3,4-b]pyridin-5-one]
7.74	Cc1cc2c(nc1N1CC[C@@H](Oc3ccc4c(c3)CCOC4)[C@@H](F)C1)CNC2=O [Example 178A, 2-((3S,4R)-3-fluoro-4-(isochroman-6-yloxy)piperidin-1-yl)-3-methyl-6,7-dihydro-5H-pyrrolo[3,4-b]pyridin-5-one]
7.74	Cc1cc2c(nc1N1CC[C@@H](Oc3ccc4c(c3)COCC4)[C@@H](F)C1)CNC2=O [Example 178B, 2-((3S,4R)-3-fluoro-4-(isochroman-7-yloxy)piperidin-1-yl)-3-methyl-6,7-dihydro-5H-pyrrolo[3,4-b]pyridin-5-one]
6.33	Cc1cc2c(nc1N1CCC(Oc3ccc4nccn4c3)CC1)CNC2=O [Example 182A, 2-(4-(imidazo[1,2-a]pyridin-6-yloxy)piperidin-1-yl)-3-methyl-6,7-dihydro-5H-pyrrolo[3,4-b]pyridin-5-one]
6.53	CCc1cc2c(nc1N1CCC(OCC3(C)CC3(F)F)CC1)CNC2=O (stereo not drawn) [Example 187A, 2-(4-((2,2-difluoro-1-methylcyclopropyl)meth-oxy)piperidin-1-yl)-3-ethyl-6,7-dihydro-5H-pyrrolo[3,4-b]pyridin-5-one]
